Data reported in patent publication US8497278B2, “Imidazo[1,2-a]pyridine compounds” (priority 2008, dated 2013).

System: central benzodiazepine receptors
Assay: Central benzodiazepine receptor binding (test of Speth et al.)
Conditions: 1000 nM of the compound
Outline: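 Radioligand binding by the Speth et al. method. Specific binding is total minus nonspecific binding, the latter measured with excess unlabelled ligand. Compounds screened at 1.0E-09, 1.0E-07 and 1.0E-05 M in single determination; values given as percent inhibition at 1000 nM compound.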

Row | SMILES | % Inhibition at 1000 nM for CBZD
1 | Cl.Clc1ccc(-c2nc3ccc(Cl)cn3c2CNc2ncccn2)cc1 [Compound 156, N-((6-chloro-2-(4-chlorophenyl)H-imidazo[1,2-a]pyridin-3-yl)methyl)pyrimidin-2-amine hydrochloride] | ++ (percentage of inhibition of central BZD site binding is greater than 80% in the presence of 1000 nM of the compound)
2 | Cc1cccn(Cc2c(-c3ccc(Cl)cc3)nc3ccc(Cl)cn23)c1=O [Compound 109, 1-((6-chloro-2-(4-chlorophenyl)H-imidazo[1,2-a]pyridin-3-yl)methyl)-3-methylpyridin-2(1H)-one] | ++ (percentage of inhibition of central BZD site binding is greater than 80% in the presence of 1000 nM of the compound)
3 | Cc1nc(Cc2c(-c3ccc(Cl)cc3)nc3ccccn23)no1 [Compound 202, 3-((2-(4-chlorophenyl)imidazo[1,2-a]pyridin-3-yl)methyl)-5-methyl-1,2,4-oxadiazole] | ++ (percentage of inhibition of central BZD site binding is greater than 80% in the presence of 1000 nM of the compound)
4 | COC(=O)c1ncnn1Cc1c(-c2ccc(C)cc2)nc2ccc(C)cn12 [Compound 10, 2-(6-Methyl-2-p-tolyl-imidazo[1,2-a]pyridin-3-ylmethyl)-2H-[1,2,4]triazole-3-carboxylic acid methyl ester] | ++ (percentage of inhibition of central BZD site binding is greater than 80% in the presence of 1000 nM of the compound)
5 | Fc1ccc(-c2nc3ccccn3c2Cn2cncn2)cc1 [Compound 54, 3-((1H-1,2,4-triazol-1-yl)methyl)-2-(4-fluorophenyl)H-imidazo[1,2-a]pyridine] | ++ (percentage of inhibition of central BZD site binding is greater than 80% in the presence of 1000 nM of the compound)
6 | Cc1ccc(-c2nc3ccc(C)cn3c2CNc2nc(C)cc(C)n2)cc1 [Compound 148, 4,6-dimethyl-N-((6-methyl-2-p-tolylH-imidazo[1,2-a]pyridin-3-yl)methyl)pyrimidin-2-amine] | ++ (percentage of inhibition of central BZD site binding is greater than 80% in the presence of 1000 nM of the compound)
7 | CCC1=C(C)CN(Cc2c(-c3ccc(C)cc3)nc3ccc(C)cn23)C1=O [Compound 93, 3-ethyl-4-methyl-1-((6-methyl-2-p-tolyl-H-imidazo[1,2-a]pyridin-3-yl)methyl)-1H-pyrrol-2(5H)-one] | ++ (percentage of inhibition of central BZD site binding is greater than 80% in the presence of 1000 nM of the compound)
8 | Cc1ccc(-c2nc3ccc(C)cn3c2Cn2ccsc2=S)cc1 [Compound 131, 3-((6-Methyl-2-p-tolylH-imidazo[1,2-a]pyridin-3-yl)methyl)thiazole-2(3H)-thione] | ++ (percentage of inhibition of central BZD site binding is greater than 80% in the presence of 1000 nM of the compound)
9 | Cc1ccc(-c2nc3ccc(C)cn3c2Cn2ccnc2C(C)C)cc1 [Compound 5, 3-((2-Isopropyl-1H-imidazol-1-yl)methyl)-6-methyl-2-p-tolylH-imidazo[1,2-a]pyridine] | ++ (percentage of inhibition of central BZD site binding is greater than 80% in the presence of 1000 nM of the compound)
10 | CN(C)C(=O)c1ncn(Cc2c(-c3ccc(Cl)cc3)nc3ccccn23)n1 [Compound 75, 1-((2-(4-chlorophenyl)imidazo[1,2-a]pyridin-3-yl)methyl)-N,N-dimethyl-1H-1,2,4-triazole-3-carboxamide] | ++ (percentage of inhibition of central BZD site binding is greater than 80% in the presence of 1000 nM of the compound)
11 | Fc1ccc(-c2nc3ccc(F)cn3c2Cc2ncn[nH]2)cc1 [Compound 210, 3-((1H-1,2,4-triazol-5-yl)methyl)-6-fluoro-2-(4-fluorophenyl)imidazo[1,2-a]pyridine] | ++ (percentage of inhibition of central BZD site binding is greater than 80% in the presence of 1000 nM of the compound)
